# Reference: patent US5846936A, “Growth hormone releasing factor analogs” (Roche Vitamins Inc., priority 1995, dated 1998)
# *1 amine or outer side, *2 acyl side, *3 side chain or, on linkers, in order; H or OH if unused. Where a SMILES comes first, the peptide text is derived from it. Where no end group is shown, it is not given here. [ ]: non-standard residue; d: D form. The star is where a group is joined. Desaminotyrosyl = O=C(CCc1ccc(O)cc1)*; βAsp = O=C(O)[C@H](CC(=O)[*:2])N[*:1]
# Experiments:
# [1] = literature; cited from earlier work
# rat pituitary cells = format: cell-based
# Description: The biological activity of the novel peptides were compared with that of a synthetic standard of the natural sequence of GRF(1-44)-NH2 (SEQ ID NO: 1-NH2) which was isolated from a human pancreatic tumor of an individual suffering from acromegaly (Salk Institute standard hp-GRF-NH2 (NL-A-10)). The assay for biological activity, which is based on the ability to stimulate production of growth hormone in rat pituitary cells in tissue culture, was performed in the following manner. Pituitaries from 30-40 male Sprague-Dawley rats (175 g) were removed aseptically after decapitation. The anterior lobes were collected, washed 3 times in sterile Hepes buffer (0.025M)(pH 7.35) and dispersed at 37° C. in 20-30 ml Hepes buffer (pH 7.35) containing collagenase (4 mg per ml) and Dispase (Protease grande II, 2 mg per ml). After gentle 80 min. vortexing and trituration by Pasteur pipette, the dispersed cells were separated by centrifugation (150×g, 4 min.) and re-suspended in Hepes buffer containing neuraminidase (4 mg/ml), and […] ethylenediaminetetraacetic acid (EDTA) disodium salt pH 7.35, for 10 min. The cells were washed twice with plating medium and plated on multiwell-plates (1.5×10^5 cells per ml) using the following defined medium: F-12/DMEM/BGJ(6:3:1) (Gibco: 430-1700/430-1600/320-2591) with 2 g BSA/L., 2.38 g Hepes/L.,50 mg Gentamycin/L (Schering Co.). The medium in each well was supplemented either with the novel peptide or natural GRF(1-44)-NH2 (SEQ ID NO: 1-NH2) at concentrations ranging from 3.1 to 200 fmol. per ml. of medium. Control wells contained no supplement. Plating was done with this medium added with 2% fetal calf serum to ensure rapid fixation of the cells. On the fourth day the cells were washed twice with the defined medium without fetal calf serum. Finally […] of defined medium was added to each well plus […] of the same medium containing each individual treatment, in triplicate. After 3 hours of incubation the medium was collected and diluted as required to conduct radioimmunoassay (RIA) for rat growth hormone. RIAs were conducted using Sinha's anti-murine GH immune serum and procedures according to the National Pituitary Agency using protein A to precipitate antibody antigen complex.
# crossbred swine = assay: In vivo GRF analog administration in swine, serum GH by RIA (GH AUC); details: relative to GRF(1-29)-NH2
# Description: In vivo GRF analog studies were performed in crossbred swine (approximately70 lbs; Hoffmann-La Roche Experimental Research Facility) housed in individual metabolism cages with food and water freely available. For each GRF analog examined, six pigs were arranged in a 6×6 latin square design, such that each pig received a different dose (0 [saline], 0.3, 1.0, 3.0, 6.0 or 10.0 μg/kg body weight) over a six day period. […] All swine were cannulated via the femoral artery under halothane/ketamine HCL/xylezine anesthesia for subsequent (2-3 days) blood sampling. GRF analog was administered by subcutaneous injection in porcine gelatin. Pretreatment (control) blood samples were taken every 30 min from 8:30-9:30 a.m. Treatment doses were administered beginning at 10:00 a.m. One hr post-dosing, animals were sampled at 10 min intervals; 2nd hr post-dosing, animals were sampled at 15 min intervals; 3rd hr post-dosing,animals were sampled at 30 min intervals. […]
# GH levels in porcine sera were measured by homologous double-antibody RIA, employing porcine GH standard (lot# AFP-10859C) supplied by Dr. A. Parlow (Research and Education Institute, Torrance, Calif.) and baboon anti-pGH sera (B-58: Hoffmann-La Roche). […] GH area under the curve (GH AUC) for the treatment period (0-360 min) was determined by trapezoidal summation. […]
# [2] = products of Asn^8 deamidation of [Leu^27]-GRF(1-32)-NH2 at pH 7.4, literature; cited from earlier work
compound,measurement,setting,value
GRF(1-29)-NH2,Intrinsic activity and potency in vitro,[1],full intrinsic activity and potency
"CC[C@H](C)[C@H](NC(=O)[C@H](C)NC(=O)[C@H](CC(=O)O)NC(=O)[C@@H](C)NC(=O)CCc1ccc(O)cc1)C(=O)N[C@@H](Cc1ccccc1)C(=O)N[C@H](C(=O)N[C@@H](CC(N)=O)C(=O)N[C@@H](CO)C(=O)N[C@@H](Cc1ccc(O)cc1)C(=O)N[C@@H](CCCNC(=N)N)C(=O)N[C@@H](CCCCN)C(=O)N[C@H](C(=O)N[C@@H](CC(C)C)C(=O)N[C@@H](C)C(=O)N[C@@H](CCC(N)=O)C(=O)N[C@@H](CC(C)C)C(=O)N[C@@H](CO)C(=O)N[C@@H](C)C(=O)N[C@@H](CCCNC(=N)N)C(=O)N[C@@H](CCCCN)C(=O)N[C@@H](CC(C)C)C(=O)N[C@@H](CC(C)C)C(=O)N[C@@H](CCC(N)=O)C(=O)N[C@@H](CC(=O)O)C(=O)N[C@H](C(=O)N[C@@H](CCSC)C(=O)N[C@@H](CO)C(=O)N[C@@H](CCCNC(=N)N)C(N)=O)[C@@H](C)CC)C(C)C)[C@@H](C)O [SEQ ID NO: 34-NH2, reference compound] (Desaminotyrosyl-[dA]DAIFTNSYRKVLAQLSARKLLQDIMSR-NH2)",Potency of GRF Analogs Relative to GRF(1-44)-NH2 (SEQ ID NO: 1-NH2),rat pituitary cells,4.71
same,Times more potent than GRF(1-29)-NH2 (SEQ ID NO: 3-NH2),crossbred swine,10-15 times
"[isoAsp^8, Leu^27 ]-GRF(1-32)-NH2 (YADAIFT[βAsp]SYRKVLGQLSARKLLQDILSRQQG-NH2; N-terminus assumed; SMILES CC[C@H](C)[C@H](NC(=O)[C@H](C)NC(=O)[C@H](CC(=O)O)NC(=O)[C@H](C)NC(=O)[C@@H](N)Cc1ccc(O)cc1)C(=O)N[C@@H](Cc1ccccc1)C(=O)N[C@H](C(=O)N[C@@H](CC(=O)N[C@@H](CO)C(=O)N[C@@H](Cc1ccc(O)cc1)C(=O)N[C@@H](CCCNC(=N)N)C(=O)N[C@@H](CCCCN)C(=O)N[C@H](C(=O)N[C@@H](CC(C)C)C(=O)NCC(=O)N[C@@H](CCC(N)=O)C(=O)N[C@@H](CC(C)C)C(=O)N[C@@H](CO)C(=O)N[C@@H](C)C(=O)N[C@@H](CCCNC(=N)N)C(=O)N[C@@H](CCCCN)C(=O)N[C@@H](CC(C)C)C(=O)N[C@@H](CC(C)C)C(=O)N[C@@H](CCC(N)=O)C(=O)N[C@@H](CC(=O)O)C(=O)N[C@H](C(=O)N[C@@H](CC(C)C)C(=O)N[C@@H](CO)C(=O)N[C@@H](CCCNC(=N)N)C(=O)N[C@@H](CCC(N)=O)C(=O)N[C@@H](CCC(N)=O)C(=O)NCC(N)=O)[C@@H](C)CC)C(C)C)C(=O)O)[C@@H](C)O) [deamidation product of [Leu^27]-GRF(1-32)-NH2]",Biological activities,[2],substantially reduced biological activities
